Experimental findings from patent publication US11013698B2, “Combinations of LSD1 inhibitors for the treatment of hematological malignancies” (Oryzon Genomics S.A., priority 2016, dated 2021) are described below.

Common to all, as to type: cell-based
One data set deals with OCI-AML2. As to the kind of experiment: Viability assay (96 hours), Alamar Blue. The conditions noted are these: OCI-AML2, 96 hours, serial 1:3 dilution. As for the experimental part: (§1) AML cell lines were maintained in RPMI 10% FBS medium at 37° C. in a humidified incubator with controlled 5% CO2 atmosphere. Cell freezing and thawing was performed following recommendation from ATCC. Genetic profiling of the cell lines used is available in table 2. Cells were seeded at the optimal density (to guarantee linear growth during the treatment), as previously determined (4000 cells/well, except 16000 cells/well in the case of KASUMI-1 cells), in 96-well plates with 50 μL of medium. Three wells were reserved for each experimental condition; medium-only and vehicle-treated controls were also added for background correction and normalization respectively. […] Alamar Blue® is a cell viability indicator that uses the natural reducing power of living cells to convert resazurin to the fluorescent molecule, resorufin^43.

In another data set the test system is KASUMI-1. Description: Viability assay (96 hours), Alamar Blue. As to conditions: KASUMI-1, 96 hours; for Reduction of viability (compared to vehicle controls): serial 1:3 dilution. As to the method:
as §1
Background: Alamar Blue is a resazurin reagent that responds to reducing activity.

The subject of another data set is MV(4;11). As to the kind of experiment: Viability assay (96 hours), Alamar Blue. The conditions noted are these: MV(4;11), 96 hours; for Reduction of viability (compared to vehicle controls): serial 1:3 dilution. As to the method: as §1
The next data set has as its system OCI-AML3. As to the kind of experiment: Viability assay (96 hours), Alamar Blue. As to conditions: OCI-AML3, 96 hours; for Reduction of viability (compared to vehicle controls): serial 1:3 dilution. As to the method: as §1
For a further data set, the system named is HL-60. As to the kind of experiment: Viability assay (96 hours), Alamar Blue. The conditions noted are these: HL-60, 96 hours; for Reduction of viability (compared to vehicle controls): serial 1:3 dilution. As for the experimental part: as §1
For another data set, the system named is MOLM-13. Description: Viability assay (96 hours), Alamar Blue. The conditions noted are these: MOLM-13, 96 hours; for Reduction of viability (compared to vehicle controls): serial 1:3 dilution. As to the method: as §1
For the next data set, the system named is THP-1. As to the kind of experiment: Viability assay (96 hours), Alamar Blue. As to conditions: THP-1, 96 hours; for Reduction of viability (compared to vehicle controls): serial 1:3 dilution. As for the experimental part:
as §1

In data set [1] the test system is MOLT-4 cells. Description: Viability after shorter treatment (96 hours). The conditions noted are these: MOLT-4, 96 hours treatment (data not shown).
In data set [2] the test system is MOLT-4 cells. As to the kind of experiment: Viability assay (10 days), Alamar Blue. The conditions noted are these: MOLT4, 10 days. As for the experimental part:
MOLT4 cells were maintained in RPMI 10% FBS medium at 37° C. in a humidified incubator with controlled 5% CO2 atmosphere. Cell freezing and thawing was performed following recommendation from ATCC. Genetic profiling of the cell lines used is available in table 4.
Three wells were reserved for each experimental condition; medium-only and vehicle-treated controls were also added for background correction and normalization respectively. After seeding, 50 μL of medium containing 8 1:3 serial dilution of ORY-1001 were added to the cells (range 0.015-100 nM). Cells were then incubated for 6 days at 37° C. in a controlled 5% CO2 atmosphere. On the sixth day, 100 μL of medium with serial dilutions of ORY-1001 (as described previously) or vehicle were added to the cells. Medium without compound (100μ) was added to background control.
After 4 additional days of incubation, cell viability was evaluated using the Alamar Blue® staining as detailed in the section 1.1.2.

Some results are limits rather than exact numbers.

For the compound `O=C(CCCCCCNC(=O)c1cnc(N(c2ccccc2)c2ccccc2)nc1)NO` [Rocilinostat, Ricolinostat], the “Reduction of viability (compared to vehicle controls)” value (shortened to “Reduction of viability”) in the data set with OCI-AML2, with KASUMI-1, in the data set on MV(4;11), with OCI-AML3, with HL-60 and with MOLM-13 was “greater than 20%” each time. The “Reduction of viability” value in the data set with THP-1 was “greater than 20%”.
For the compound `N[C@H]1CC[C@H](N[C@@H]2C[C@H]2c2ccccc2)CC1` [ORY-1001, (trans)-N1-((1R,2S)-2-phenylcyclopropyl)cyclohexane-1,4-diamine], the “Reduction of viability” value in the data set with KASUMI-1, with MV(4;11), in the data set on OCI-AML3, in the data set on HL-60, with MOLM-13 and in the data set with THP-1 was “greater than 20%” in each case. For the same compound, the “EC50 (viability)” value with KASUMI-1 (single agent), in the data set on MV(4;11) (single agent), in the data set on OCI-AML3 (single agent), in the data set on HL-60 (single agent), in the data set with MOLM-13 (single agent) and with THP-1 (single agent) was “sub-nanomolar range” each time. In the data set with MOLT-4 cells [2], the “EC50 (viability)” value was “sub-nanomolar range”. Besides, the Effect on viability result in the data set on MOLT-4 cells [1] was “not affecting the viability”. For the same compound, the cytotoxicity at 0.1 µM in the data set on MOLT-4 cells [2] (Homo sapiens, MOLT-4, 240 h, highest ORY-1001 concentration 100 nM, read-out: Viability reduction (compared to vehicles)) was greater than 20%.
